From patent US5574070A, “Substituted guanidines having high binding to the sigma receptor and the use thereof” (priority 1993, dated 1996)
Counter-ions that a name gives are not always drawn. Like-named read-outs stand apart in the source and are kept apart here.

Tested on: sigma receptor
Assay: [3H]DTG displacement radioligand binding assay, guinea pig brain membranes
[1] = Example 25, guinea pig brain membrane homogenates, read-out: IC50 binding values
[2] = list of especially preferred compounds, read-out: IC50 (high binding to the sigma receptor)
[3] = read-out: IC50 vs [3H]DTG, Table I, guinea pig brain membranes

Row | IC50 [1] [nM] | IC50 [2] [nM] | Compound | in vitro [3H]DTG displacement activity | other results
1 | 25 | 25 | Cc1ccccc1NC(=N)N[C@H]1C[C@@H]2CC[C@@]1(C)C2(C)C (relative stereo) [N-(exo-2-isobornyl)-N'-(o-tolyl)guanidine] | found to possess the aforesaid in vitro [^3 H]DTG displacement activity | 
2 |  | 22.6 | Cc1ccccc1N(C)C(=N)NC12CC3CC(CC(C3)C1)C2 [N-(Adamantan-1-yl)-N'-(2-methylphenyl)-N'-methyl-guanidine] |  | IC50 (read-out: IC50 vs [3H]DTG, Table II, ± s.e.m. (n)): 22.6 nM
3 | 18 | 18 | CC1(C)[C@H]2CC[C@]1(C)[C@@H](NC(=N)Nc1ccccc1I)C2 (relative stereo) [N-(exo-2-isobornyl)-N'-(o-iodophenyl)guanidine] | found to possess the aforesaid in vitro [^3 H]DTG displacement activity | 
4 |  | 2.7 | Cc1cc(Br)ccc1NC(=N)NC12CC3CC(CC(C3)C1)C2 [N-(adamant-1-yl)-N'-(p-bromo-o-tolyl)guanidine] | found to possess the aforesaid in vitro [^3 H]DTG displacement activity | 
5 |  | 6 | Cc1ccccc1NC(=N)N[C@@H]1C[C@@H]2CC[C@H]1C2 (relative stereo) [N-((±)-endo-2-norbornyl)-N'-(2-methylphenyl)guanidine] |  | 
6 | 30 | 30 | N=C(Nc1ccccc1[N+](=O)[O-])NC12CC3CC(CC(C3)C1)C2 [N-(1-adamantyl)-N'-(o-nitrophenyl)guanidine] | found to possess the aforesaid in vitro [^3 H]DTG displacement activity | 
7 | 20 | 20 | CC(C)(C)NC(=N)Nc1ccccc1I [N-(o-iodophenyl)-N'-(t-butyl)guanidine] | found to possess the aforesaid in vitro [^3 H]DTG displacement activity | 
8 |  | 7 | Cc1ccccc1NC(=N)NC1C2CC3CC(C2)CC1C3 (stereo not shown) [N-(adamant-2-yl)-N'-(2-methylphenyl)guanidine] |  | 
9 | 15 | 15 | Cc1ccccc1NC(=N)NC12CC3CC(C)(CC(C)(C3)C1)C2 [N-(3,5-dimethyladamantan-1-yl)-N'-(o-tolyl)guanidine] | found to possess the aforesaid in vitro [^3 H]DTG displacement activity | 
10 | 21 | 21 | Cc1ccccc1NC(=N)Nc1ccccc1I [N-(2-iodophenyl)-N'-(2-methylphenyl)-guanidine] | found to possess the aforesaid in vitro [^3 H]DTG displacement activity | IC50 [3]: 21 ± 1 nM
11 | 90 ± 18 | 90 | Cc1cccc(C)c1NC(=N)Nc1c(C)cccc1C [DXG, N,N'-di-(2,6-dimethylphenyl)guanidine] | found to possess the aforesaid in vitro [^3 H]DTG displacement activity | IC50 [3]: 90 ± 18 nM
12 | 24 | 24 | CC(C)c1ccccc1NC(=N)NC12CC3CC(CC(C3)C1)C2 [N-(adamant-1-yl)-N'-(o-isopropylphenyl)guanidine] | found to possess the aforesaid in vitro [^3 H]DTG displacement activity | 
13 | 280 ± 20 |  | Cc1ccccc1NC(=N)Nc1ccc(N)cc1C [NH2 --DTG, N-(2-Methyl-4-aminophenyl)-N'-(2-methylphenyl)-guanidine hydrochloride] |  | IC50 [3]: 280 ± 14 nM
14 | 37 | 37 | Cc1ccccc1NC(=N)Nc1ccc([N+](=O)[O-])cc1C [N-(2-Methyl-4-nitrophenyl)-N'-(2-methyl-phenyl)guanidine] | found to possess the aforesaid in vitro [^3 H]DTG displacement activity | IC50 [3]: 37 ± 5 nM
15 |  | 4 | N=C(Nc1ccccc1I)N[C@H]1C[C@@H]2CC[C@H]1C2 (relative stereo) [N-(exo-2-norbornyl)-N'-(2-iodophenyl)guanidine] |  | 

More lines, now with the values behind:

Row | Compound | IC50 [1] [nM] | IC50 [2] [nM] | in vitro [3H]DTG displacement activity | other results
16 | CN(CC(=O)O)C(=N)N [creatine, reference compound] |  |  |  | displacement of [3H]DTG (10 uM): no significant displacement
17 | N=C(N)NCC(=O)O [guanidino acetic acid, reference compound] |  |  |  | displacement of [3H]DTG (10 uM): no significant displacement
18 | 1,1-dimethyl-4-guanidine [reference compound] |  |  |  | displacement of [3H]DTG: no significant displacement
19 | beta-endorphin [reference compound] |  |  |  | displacement of [3H]DTG (10 uM): no significant displacement
20 | C=CCN1CC[C@]23c4c5ccc(O)c4O[C@H]2C(=O)CC[C@@]3(O)[C@H]1C5 [naloxone, reference compound] |  |  |  | displacement of [3H]DTG (10 uM): no significant displacement
21 | C[N+](C)(C)CCCCCC[N+](C)(C)C [hexamethonium, reference compound] |  |  |  | displacement of [3H]DTG (10 uM): no significant displacement
22 | N=C(N)NCCC(=O)O [beta-guanidino propionic acid, reference compound] |  |  |  | displacement of [3H]DTG (10 uM): no significant displacement
23 | CCCCNC(=N)NCCCC [N,N'-di-n-butyl-guanidine] |  |  | found to possess the aforesaid in vitro [^3 H]DTG displacement activity | IC50 [3]: 750 ± 33 nM
24 | CN(C)CCCN1c2ccccc2CCc2ccccc21 [Imipramine, reference compound] |  |  |  | IC50 (read-out: IC50 vs. [3H]DTG): 520 ± 14 nM
25 | Cc1cc(Br)ccc1NC(=N)Nc1ccc(Br)cc1C [Example 4-Br--DTG, N,N'-Di-(4-bromo-2-methylphenyl)guanidine] | 37 | 37 | found to possess the aforesaid in vitro [^3 H]DTG displacement activity | IC50 [3]: 37 ± 3 nM
26 | CN1CCc2cc3c(cc2[C@H]1[C@@H]1OC(=O)c2c1ccc1c2OCO1)OCO3 [bicuculline, reference compound] |  |  |  | displacement of [3H]DTG (10 uM): no significant displacement
27 | N=C(NC1CCCCC1)NC1CCCCC1 [N,N'-di(cyclohexyl)guanidine] | 71 | 71 | found to possess the aforesaid in vitro [^3 H]DTG displacement activity | IC50 [3]: 71 ± 7 nM
28 | CN1CCc2cccc3c2[C@H]1Cc1ccc(O)c(O)c1-3 [apomorphine, reference compound] |  |  |  | displacement of [3H]DTG (10 uM): no significant displacement
29 | CN/C(=N/CCSCc1nc[nH]c1C)NC#N [cimetidine, reference compound] |  |  |  | displacement of [3H]DTG: no significant displacement
30 | CN(C)CCC=C1c2ccccc2CCc2ccccc21 [Amitriptyline, reference compound] |  |  |  | IC50 (read-out: IC50 vs. [3H]DTG, Table III, ± SEM, average from 2-4 separate experiments in triplicate): 300 ± 7 nM
31 | CN1CC(=O)NC1=N [creatinine, reference compound] |  |  |  | displacement of [3H]DTG (10 uM): no significant displacement
32 | dynorphin A [reference compound] |  |  |  | displacement of [3H]DTG (10 uM): no significant displacement
33 | CNC(=N)NC [DMG, N,N'-di(methyl)guanidine, reference compound] | > 10000 |  |  | 
34 | N=C(NC1CC2CCC1C2)NC1CC2CCC1C2 (racemic) [N,N'-di-((±)-endo-2-norbornyl)guanidine] | 16 | 16 | found to possess the aforesaid in vitro [^3 H]DTG displacement activity | 
35 | N=C1Nc2ccccc2-c2ccccc2N1 [Bridge-DPG, 2-imino-1,3H-dibenzo[d,f]-[1,3]-diazepine] | > 10000 |  |  | 
36 | N=C(Nc1ccc(I)cc1)NC1C2CC3CC(C2)CC1C3 (stereo not shown) [N-(adamant-2-yl)-N'-(p-iodophenyl)guanidine] | 2.7 |  | found to possess the aforesaid in vitro [^3 H]DTG displacement activity | 
